Assay results published in patent US6046171A, “6,11-bridged erythromycin derivatives” (priority 1998, dated 2000).
Converted amounts (≈) assume the structure as drawn.

Legend:
Format in all cases: cell-based
[1] = system: Streptococcus Pheumoniae 5649; test: in vitro antibacterial MIC, agar dilution; conditions: organism code ZZA; 35-37° C., 20 to 24 hours; unit assumed
Procedure: (§1) Representative compounds of the present invention were assayed in vitro for antibacterial activity as follows: Twelve petri dishes containing successive aqueous dilutions of the test compound mixed with 10 mL of sterilized Brain Heart Infusion (BHI) agar (Difco 0418-01-5) were prepared. Each plate was inoculated with 1:100 (or 1:10 for slow-growing strains, such as Micrococcus and Streptococcus) dilutions of up to 32 different microorganisms, using a Steers replicator block. […] In addition, a control plate, using BHI agar containing no test compound, was prepared and incubated at the beginning and end of each test.
(§2) An additional plate containing a compound having known susceptibility patterns for the organisms being tested and belonging to the same antibiotic class as the test compound was also prepared and incubated as a further control, as well as to provide test-to-test comparability.
(§3) After incubation, each plate was visually inspected. The minimum inhibitory concentration (MIC) was defined as the lowest concentration of drug yielding no growth, a slight haze, or sparsely isolated colonies on the inoculum spot as compared to the growth control.

[2] = system: Haemophilis Influenzae DILL AMP R; test: in vitro antibacterial MIC, agar dilution; conditions: organism code WW; 35-37° C., 20 to 24 hours; unit assumed
Procedure: as §1, §2, §3

[3] = system: Enterococcus faecium ATCC 8Q43; test: in vitro antibacterial MIC, agar dilution; conditions: organism code II; 35-37° C., 20 to 24 hours; unit assumed
Procedure: as §1, §2, §3

[4] = system: Streptococcus bovis A-5169; test: in vitro antibacterial MIC, agar dilution; conditions: organism code JJ; 35-37° C., 20 to 24 hours; unit assumed
Procedure: as §1, §2, §3

[5] = system: Streptococcus Pheumoniae 5979; test: in vitro antibacterial MIC, agar dilution; conditions: organism code ZZ; 35-37° C., 20 to 24 hours; unit assumed
Procedure: as §1, §2, §3

Escherichia coli SS = test: in vitro antibacterial MIC, agar dilution; conditions: organism code RR; 35-37° C., 20 to 24 hours; unit assumed
Procedure: as §1, §2, §3

[6] = system: Streptococcus pyogenes PIU 2548; test: in vitro antibacterial MIC, agar dilution; conditions: organism code NN; 35-37° C., 20 to 24 hours; unit assumed
Procedure: as §1, §2, §3

[7] = system: Streptococcus pyogenes EES61; test: in vitro antibacterial MIC, agar dilution; conditions: organism code LL; 35-37° C., 20 to 24 hours; unit assumed
Procedure: as §1, §2, §3

[8] = system: Staphylococcus aureus CMX 553; test: in vitro antibacterial MIC, agar dilution; conditions: organism code FF; 35-37° C., 20 to 24 hours; unit assumed
Procedure: as §1, §2, §3

[9] = system: Nocardia Asteroides ATCC9970; test: in vitro antibacterial MIC, agar dilution; conditions: organism code VV; 35-37° C., 20 to 24 hours; unit assumed
Procedure: as §1, §2, §3

[10] = system: Staphylococcus aureus CMX 642A; test: in vitro antibacterial MIC, agar dilution; conditions: organism code DD; 35-37° C., 20 to 24 hours; unit assumed
Procedure: as §1, §2, §3

[11] = system: Micrococcus luteus ATCC 4698; test: in vitro antibacterial MIC, agar dilution; conditions: organism code PP; 35-37° C., 20 to 24 hours; unit assumed
Procedure: as §1, §2, §3

[12] = system: Staphylococcus epidermidis 3519; test: in vitro antibacterial MIC, agar dilution; conditions: organism code HH; 35-37° C., 20 to 24 hours; unit assumed
Procedure: as §1, §2, §3

[13] = system: Staphylococcus aureus ATCC 6538P; test: in vitro antibacterial MIC, agar dilution (BHI agar, Steers replicator); conditions: organism code AA; 35-37° C., 20 to 24 hours; unit assumed
Procedure: as §1, §2, §3

[14] = system: Staphylococcus aureus NCTC10649M; test: in vitro antibacterial MIC, agar dilution; conditions: organism code EE; 35-37° C., 20 to 24 hours; unit assumed
Procedure: as §1, §2, §3

[15] = system: Micrococcus luteus ATCC 9341; test: in vitro antibacterial MIC, agar dilution; conditions: organism code OO; 35-37° C., 20 to 24 hours; unit assumed
Procedure: as §1, §2, §3

[16] = system: Mycobacterium smegmatis ATCC 114; test: in vitro antibacterial MIC, agar dilution; conditions: organism code UU; 35-37° C., 20 to 24 hours; unit assumed
Procedure: as §1, §2, §3

[17] = system: Staphylococcus aureus A5177; test: in vitro antibacterial MIC, agar dilution; conditions: organism code BB; 35-37° C., 20 to 24 hours; unit assumed
Procedure: as §1, §2, §3

[18] = system: Streptococcus agalactiae CMX 508; test: in vitro antibacterial MIC, agar dilution; conditions: organism code KK; 35-37° C., 20 to 24 hours; unit assumed
Procedure: as §1, §2, §3

[19] = system: Streptococcus pyogenes 930; test: in vitro antibacterial MIC, agar dilution; conditions: organism code MM; 35-37° C., 20 to 24 hours; unit assumed
Procedure: as §1, §2, §3

| SMILES | MIC [1] [µg/mL] | MIC [2] [µg/mL] | MIC [3] [µg/mL] | MIC [4] [µg/mL] | MIC [5] [µg/mL] | MIC (Escherichia coli SS) [µg/mL] | MIC [6] [µg/mL] | MIC [7] [µg/mL] | MIC [8] [µg/mL] | MIC [9] [µg/mL] | MIC [10] [µg/mL] | MIC [11] [µg/mL] | MIC [12] [µg/mL] | MIC [13] [µg/mL] | MIC [14] [µg/mL] | MIC [15] [µg/mL] | MIC [16] [µg/mL] | MIC [17] [µg/mL] | MIC [18] [µg/mL] | MIC [19] [µg/mL] |
| --- | --- | --- | --- | --- | --- | --- | --- | --- | --- | --- | --- | --- | --- | --- | --- | --- | --- | --- | --- | --- |
| CC[C@H]1OC(=O)[C@H](C)[C@@H](O[C@H]2C[C@@](C)(OC)[C@@H](O)[C@H](C)O2)[C@H](C)[C@@H](O[C@@H]2O[C@H](C)C[C@H](N(C)C)[C@H]2O)[C@@]2(C)C[C@@H](C)C(=O)[C@H](C)[C@H]3N(CCCCO2)C(=O)O[C@]13C [Example 15] | 16 (≈ 19.7 µM) | 32 (≈ 39.4 µM) | 0.1 (≈ 0.123 µM) | 0.05 (≈ 0.0615 µM) | > 128 |  |  |  |  |  |  |  |  |  |  |  |  |  |  |  |
| CC[C@H]1OC(=O)[C@H](C)[C@@H](O[C@H]2C[C@@](C)(OC)[C@@H](O)[C@H](C)O2)[C@H](C)[C@@H](O[C@@H]2O[C@H](C)C[C@H](N(C)C)[C@H]2O)[C@@]2(C)C[C@@H](C)C(=O)[C@H](C)[C@H]3N(CCNCc4cccc(c4)C=CCO2)C(=O)O[C@]13C [Example 11] | 32 (≈ 34.4 µM) | 32 (≈ 34.4 µM) | 0.2 (≈ 0.215 µM) |  | > 128 | 6.2 (≈ 6.67 µM) |  |  |  |  |  |  |  |  |  |  |  |  |  |  |
| CC[C@H]1OC(=O)[C@H](C)[C@@H](O[C@H]2C[C@@](C)(OC)[C@@H](O)[C@H](C)O2)[C@H](C)[C@@H](O[C@@H]2O[C@H](C)C[C@H](N(C)C)[C@H]2O)[C@@]2(C)C[C@@H](C)C(=O)[C@H](C)[C@H]3N(CCNC(=O)c4ccccc4C=CCO2)C(=O)O[C@]13C [Example 4] | 16 (≈ 16.9 µM) | 16 (≈ 16.9 µM) | 0.39 (≈ 0.413 µM) |  | > 128 | 6.2 (≈ 6.57 µM) | 12.5 (≈ 13.2 µM) | 0.39 (≈ 0.413 µM) | 1.56 (≈ 1.65 µM) | 0.2 (≈ 0.212 µM) | 1.56 (≈ 1.65 µM) | 1.56 (≈ 1.65 µM) | 1.56 (≈ 1.65 µM) | 1.56 (≈ 1.65 µM) |  |  |  |  |  |  |
| CC[C@H]1OC(=O)[C@H](C)[C@@H](O[C@H]2C[C@@](C)(OC)[C@@H](O)[C@H](C)O2)[C@H](C)[C@@H](O[C@@H]2O[C@H](C)C[C@H](N(C)C)[C@H]2O)[C@@]2(C)C[C@@H](C)C(=O)[C@H](C)[C@H]3N(CCC=CCO2)C(=O)O[C@]13C [Example 17] | 8 (≈ 9.7 µM) | 8 (≈ 9.7 µM) | 0.05 (≈ 0.0606 µM) |  | > 128 |  |  | 0.02 (≈ 0.0242 µM) | 0.1 (≈ 0.121 µM) | 0.02 (≈ 0.0242 µM) | 0.2 (≈ 0.242 µM) | 0.1 (≈ 0.121 µM) | 0.2 (≈ 0.242 µM) | 0.1 (≈ 0.121 µM) | 0.2 (≈ 0.242 µM) | 0.02 (≈ 0.0242 µM) | 0.2 (≈ 0.242 µM) |  |  |  |
| CC[C@H]1OC(=O)[C@H](C)[C@@H](O[C@H]2C[C@@](C)(OC)[C@@H](O)[C@H](C)O2)[C@H](C)[C@@H](O[C@@H]2O[C@H](C)C[C@H](N(C)C)[C@H]2O)[C@@]2(C)C[C@@H](C)C(=O)[C@H](C)[C@H]3N(CCNC(=O)Cc4ccccc4C=CCO2)C(=O)O[C@]13C [Example 6] | 16 (≈ 16.7 µM) | 8 (≈ 8.35 µM) | 0.39 (≈ 0.407 µM) | 0.1 (≈ 0.104 µM) | > 128 | 3.1 (≈ 3.24 µM) | 12.5 (≈ 13 µM) | 0.2 (≈ 0.209 µM) | 0.78 (≈ 0.814 µM) | 0.39 (≈ 0.407 µM) | 1.56 (≈ 1.63 µM) | 0.78 (≈ 0.814 µM) | 0.78 (≈ 0.814 µM) | 0.78 (≈ 0.814 µM) | 1.56 (≈ 1.63 µM) | 0.1 (≈ 0.104 µM) | 0.39 (≈ 0.407 µM) | 12.5 (≈ 13 µM) | 0.1 (≈ 0.104 µM) |  |
| CC[C@H]1OC(=O)[C@H](C)C(=O)[C@H](C)[C@@H](O[C@@H]2O[C@H](C)C[C@H](N(C)C)[C@H]2O)[C@@]2(C)C[C@@H](C)C(=O)[C@H](C)[C@H]3N(CC=CCO2)C(=O)O[C@]13C [Example 16] |  | 32 (≈ 49.2 µM) | 0.2 (≈ 0.307 µM) | 0.2 (≈ 0.307 µM) | > 128 | 0.78 (≈ 1.2 µM) | 0.39 (≈ 0.599 µM) | 0.2 (≈ 0.307 µM) | 0.39 (≈ 0.599 µM) | 0.39 (≈ 0.599 µM) | 0.39 (≈ 0.599 µM) | 0.39 (≈ 0.599 µM) | 0.39 (≈ 0.599 µM) | 0.39 (≈ 0.599 µM) | 0.39 (≈ 0.599 µM) | 0.2 (≈ 0.307 µM) | 6.2 (≈ 9.53 µM) | 0.39 (≈ 0.599 µM) | 0.2 (≈ 0.307 µM) |  |
| CC[C@H]1OC(=O)[C@H](C)C(=O)[C@H](C)[C@@H](O[C@@H]2O[C@H](C)C[C@H](N(C)C)[C@H]2O)[C@@]2(C)C[C@@H](C)C(=O)[C@H](C)[C@H]3N(CCOCc4ccccc4C=CCO2)C(=O)O[C@]13C [Example 12] | 1 (≈ 1.3 µM) | 16 (≈ 20.8 µM) | 0.1 (≈ 0.13 µM) |  | 128 (≈ 166 µM) | 1.56 (≈ 2.02 µM) |  |  | 0.78 (≈ 1.01 µM) | 0.78 (≈ 1.01 µM) | 0.78 (≈ 1.01 µM) |  | 0.78 (≈ 1.01 µM) | 0.78 (≈ 1.01 µM) | 0.78 (≈ 1.01 µM) |  | 0.78 (≈ 1.01 µM) | 0.78 (≈ 1.01 µM) |  | 50 (≈ 64.9 µM) |
| CC[C@H]1OC(=O)[C@H](C)[C@@H](O[C@H]2C[C@@](C)(OC)[C@@H](O)[C@H](C)O2)[C@H](C)[C@@H](O[C@@H]2O[C@H](C)C[C@H](N(C)C)[C@H]2O)[C@@]2(C)C[C@@H](C)C(=O)[C@H](C)[C@H]3N(CC(O)CC=CCO2)C(=O)O[C@]13C (some centres unmarked) [Example 19] | 16 (≈ 18.7 µM) | 8 (≈ 9.36 µM) | 0.1 (≈ 0.117 µM) | 0.02 (≈ 0.0234 µM) | > 128 |  | 12.5 (≈ 14.6 µM) | 0.05 (≈ 0.0585 µM) |  | 0.05 (≈ 0.0585 µM) |  |  |  |  |  | 0.05 (≈ 0.0585 µM) |  |  | 0.05 (≈ 0.0585 µM) |  |
| CC[C@H]1OC(=O)[C@H](C)[C@@H](O[C@H]2C[C@@](C)(OC)[C@@H](OC(C)=O)[C@H](C)O2)[C@H](C)[C@@H](O[C@@H]2O[C@H](C)C[C@H](N(C)C)[C@H]2O)[C@@]2(C)C[C@@H](C)C(=O)[C@H](C)[C@H]3N(CCNCc4cccc(c4)C=CCO2)C(=O)O[C@]13C [Example 10] | 8 (≈ 8.23 µM) |  | 0.78 (≈ 0.802 µM) | 0.39 (≈ 0.401 µM) |  | 6.2 (≈ 6.38 µM) | 6.2 (≈ 6.38 µM) | 0.78 (≈ 0.802 µM) | 6.2 (≈ 6.38 µM) | 1.56 (≈ 1.6 µM) | 6.2 (≈ 6.38 µM) | 1.56 (≈ 1.6 µM) | 6.2 (≈ 6.38 µM) | 6.2 (≈ 6.38 µM) | 6.2 (≈ 6.38 µM) | 0.39 (≈ 0.401 µM) | 0.39 (≈ 0.401 µM) | 25 (≈ 25.7 µM) | 0.39 (≈ 0.401 µM) | 25 (≈ 25.7 µM) |
